Data reported in the supplement of paper PMC10307832.

Key:
Assay in all cases: relative viability (nuclei count vs DMSO), 5 days (fraction); higher = more cells survive
NCI-H2126 = test system: NCI-H2126
Summary of the method: (§1)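 Each reported value is a median over duplicate plates. It expresses relative viability: treated-well nuclei count divided by vehicle-well nuclei count. Lung cancer cell lines in 1536-well plates were dosed by pin tool a day after seeding, alone with one drug or with a fixed anchor-drug dose plus five library-drug doses (not always all listed) in √10 steps, and nuclei were counted after 5 days.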

HOP-62 = test system: HOP-62
Summary of the method: as §1

LU99A = test system: LU99A
Summary of the method: as §1

HARA = test system: HARA
Summary of the method: as §1

CAL-12T = test system: CAL-12T
Summary of the method: as §1

HCC-827 = test system: HCC-827
Summary of the method: as §1

NCI-H2009 = test system: NCI-H2009
Summary of the method: as §1

COR-L 105 = test system: COR-L 105
Summary of the method: as §1

BEN = test system: BEN
Summary of the method: as §1

LC-2-ad = test system: LC-2-ad
Summary of the method: as §1

NCI-H1993 = test system: NCI-H1993
Summary of the method: as §1

PC-14 = test system: PC-14
Summary of the method: as §1

LXF-289 = test system: LXF-289
Summary of the method: as §1

HCC-366 = test system: HCC-366
Summary of the method: as §1

NCI-H2087 = test system: NCI-H2087
Summary of the method: as §1

COR-L23 = test system: COR-L23
Summary of the method: as §1

HCC-44 = test system: HCC-44
Summary of the method: as §1

PC-3 [JPC-3] = test system: PC-3 [JPC-3]
Summary of the method: as §1

SK-MES-1 = test system: SK-MES-1
Summary of the method: as §1

NCI-H727 = test system: NCI-H727
Summary of the method: as §1

HCC-15 = test system: HCC-15
Summary of the method: as §1

NCI-H2170 = test system: NCI-H2170
Summary of the method: as §1

LCLC-97TM1 = test system: LCLC-97TM1
Summary of the method: as §1

## O=C(O)CCCCC(CCSCc1ccccc1)SCc1ccccc1 (centres undefined) [CPI-613] + Cc1cc(Nc2cc(N3CCN(C)CC3)nc(Sc3ccc(NC(=O)C4CC4)cc3)n2)n[nH]1 [Tozasertib] (partner 0.1 µM)
NCI-H2126; first compound 5 µM
  relative viability: 0.775
NCI-H2126; first compound 15.81 µM
  relative viability: 0.778
NCI-H2126; first compound 50 µM
  relative viability: 0.817
NCI-H2126; first compound 158.11 µM
  relative viability: 0.281
NCI-H2126; first compound 500 µM
  relative viability: 0.0758
HOP-62; first compound 5 µM
  relative viability: 0.383
HOP-62; first compound 15.81 µM
  relative viability: 0.305
HOP-62; first compound 50 µM
  relative viability: 0.286
HOP-62; first compound 158.11 µM
  relative viability: 0.191
HOP-62; first compound 500 µM
  relative viability: 0.0544
LU99A; first compound 5 µM
  relative viability: 0.299
LU99A; first compound 15.81 µM
  relative viability: 0.298
LU99A; first compound 50 µM
  relative viability: 0.293
LU99A; first compound 158.11 µM
  relative viability: 0.343
LU99A; first compound 500 µM
  relative viability: 0.34
HARA; first compound 15.81 µM
  relative viability: 0.117
HARA; first compound 50 µM
  relative viability: 0.0973
HARA; first compound 158.11 µM
  relative viability: 0.0946
HARA; first compound 500 µM
  relative viability: 0.0096
CAL-12T; first compound 5 µM
  relative viability: 0.284
CAL-12T; first compound 15.81 µM
  relative viability: 0.253
CAL-12T; first compound 50 µM
  relative viability: 0.256
CAL-12T; first compound 158.11 µM
  relative viability: 0.0605
CAL-12T; first compound 500 µM
  relative viability: 0.0057
HCC-827; first compound 5 µM
  relative viability: 0.451
HCC-827; first compound 15.81 µM
  relative viability: 0.388
HCC-827; first compound 50 µM
  relative viability: 0.409
HCC-827; first compound 158.11 µM
  relative viability: 0.375
HCC-827; first compound 500 µM
  relative viability: 0.292
NCI-H2009; first compound 5 µM
  relative viability: 0.67
NCI-H2009; first compound 15.81 µM
  relative viability: 0.696
NCI-H2009; first compound 50 µM
  relative viability: 0.699
NCI-H2009; first compound 158.11 µM
  relative viability: 0.136
NCI-H2009; first compound 500 µM
  relative viability: 0.0212
COR-L 105; first compound 5 µM
  relative viability: 0.288
COR-L 105; first compound 15.81 µM
  relative viability: 0.348
COR-L 105; first compound 50 µM
  relative viability: 0.321
COR-L 105; first compound 158.11 µM
  relative viability: 0.321
COR-L 105; first compound 500 µM
  relative viability: 0.137
BEN; first compound 5 µM
  relative viability: 0.532
BEN; first compound 15.81 µM
  relative viability: 0.47
BEN; first compound 50 µM
  relative viability: 0.495
BEN; first compound 158.11 µM
  relative viability: 0.535
BEN; first compound 500 µM
  relative viability: 0.408
LC-2-ad; first compound 5 µM
  relative viability: 0.45
LC-2-ad; first compound 15.81 µM
  relative viability: 0.398
LC-2-ad; first compound 50 µM
  relative viability: 0.459
LC-2-ad; first compound 158.11 µM
  relative viability: 0.267
LC-2-ad; first compound 500 µM
  relative viability: 0.0577
NCI-H1993; first compound 5 µM
  relative viability: 0.631
NCI-H1993; first compound 15.81 µM
  relative viability: 0.669
NCI-H1993; first compound 50 µM
  relative viability: 0.559
NCI-H1993; first compound 158.11 µM
  relative viability: 0.507
NCI-H1993; first compound 500 µM
  relative viability: 0.426
PC-14; first compound 5 µM
  relative viability: 0.556
PC-14; first compound 15.81 µM
  relative viability: 0.531
PC-14; first compound 50 µM
  relative viability: 0.553
PC-14; first compound 158.11 µM
  relative viability: 0.502
PC-14; first compound 500 µM
  relative viability: 0.536
LXF-289; first compound 5 µM
  relative viability: 0.178
LXF-289; first compound 15.81 µM
  relative viability: 0.142
LXF-289; first compound 50 µM
  relative viability: 0.176
LXF-289; first compound 158.11 µM
  relative viability: 0.0521
LXF-289; first compound 500 µM
  relative viability: 0.0406
HCC-366; first compound 5 µM
  relative viability: 0.0925
HCC-366; first compound 15.81 µM
  relative viability: 0.33
HCC-366; first compound 50 µM
  relative viability: 0.156
HCC-366; first compound 158.11 µM
  relative viability: 0.0259
HCC-366; first compound 500 µM
  relative viability: 0.0032
NCI-H2087; first compound 5 µM
  relative viability: 0.316
NCI-H2087; first compound 15.81 µM
  relative viability: 0.256
NCI-H2087; first compound 50 µM
  relative viability: 0.21
NCI-H2087; first compound 158.11 µM
  relative viability: 0.0949
NCI-H2087; first compound 500 µM
  relative viability: 0.0489
COR-L23; first compound 5 µM
  relative viability: 0.208
COR-L23; first compound 15.81 µM
  relative viability: 0.145
COR-L23; first compound 50 µM
  relative viability: 0.192
COR-L23; first compound 158.11 µM
  relative viability: 0.11
COR-L23; first compound 500 µM
  relative viability: 0.0434
HCC-44; first compound 5 µM
  relative viability: 0.936
HCC-44; first compound 15.81 µM
  relative viability: 0.845
HCC-44; first compound 50 µM
  relative viability: 0.969
HCC-44; first compound 158.11 µM
  relative viability: 0.322
HCC-44; first compound 500 µM
  relative viability: 0.0777
PC-3 [JPC-3]; first compound 5 µM
  relative viability: 0.81
PC-3 [JPC-3]; first compound 15.81 µM
  relative viability: 0.808
PC-3 [JPC-3]; first compound 50 µM
  relative viability: 0.762
PC-3 [JPC-3]; first compound 158.11 µM
  relative viability: 0.499
PC-3 [JPC-3]; first compound 500 µM
  relative viability: 0.498
SK-MES-1; first compound 5 µM
  relative viability: 0.895
SK-MES-1; first compound 15.81 µM
  relative viability: 0.783
SK-MES-1; first compound 50 µM
  relative viability: 0.753
SK-MES-1; first compound 158.11 µM
  relative viability: 0.138
SK-MES-1; first compound 500 µM
  relative viability: 0.106
NCI-H727; first compound 5 µM
  relative viability: 0.557
NCI-H727; first compound 15.81 µM
  relative viability: 0.697
NCI-H727; first compound 50 µM
  relative viability: 0.685
NCI-H727; first compound 158.11 µM
  relative viability: 0.369
NCI-H727; first compound 500 µM
  relative viability: 0.455
HCC-15; first compound 5 µM
  relative viability: 0.514
HCC-15; first compound 15.81 µM
  relative viability: 0.367
HCC-15; first compound 50 µM
  relative viability: 0.369
HCC-15; first compound 158.11 µM
  relative viability: 0.29
HCC-15; first compound 500 µM
  relative viability: 0.112
NCI-H2170; first compound 5 µM
  relative viability: 0.732
NCI-H2170; first compound 15.81 µM
  relative viability: 0.55
NCI-H2170; first compound 50 µM
  relative viability: 0.694
NCI-H2170; first compound 158.11 µM
  relative viability: 0.347
NCI-H2170; first compound 500 µM
  relative viability: 0.183
LCLC-97TM1; first compound 5 µM
  relative viability: 0.209
LCLC-97TM1; first compound 15.81 µM
  relative viability: 0.204
LCLC-97TM1; first compound 50 µM
  relative viability: 0.247
LCLC-97TM1; first compound 158.11 µM
  relative viability: 0.138
LCLC-97TM1; first compound 500 µM
  relative viability: 0.0361
